Laboratory results published in ChEMBL document CHEMBL4354799, “Exploiting Structural Dynamics To Design Open-Flap Inhibitors of Malarial Aspartic Proteases” (J Med Chem, 2019).
Blank lines part the entries; values can stand above or below the compound they belong to.

What was measured:
Plasmepsin 4 [1] = target: T1, Plasmepsin 4 (Plasmodium falciparum, UniProt Q17SB2); assay: Inhibition of Plasmodium falciparum plasmepsin 4 using fluorescently labeled peptide substrate by fluorescence method
Plasmepsin II [2] = target: T2, Plasmepsin II (Plasmodium falciparum, UniProt P46925); assay: Inhibition of Plasmodium falciparum plasmepsin 2 using fluorescently labeled peptide substrate by fluorescence method
T2 sequence (P46925 whole entry): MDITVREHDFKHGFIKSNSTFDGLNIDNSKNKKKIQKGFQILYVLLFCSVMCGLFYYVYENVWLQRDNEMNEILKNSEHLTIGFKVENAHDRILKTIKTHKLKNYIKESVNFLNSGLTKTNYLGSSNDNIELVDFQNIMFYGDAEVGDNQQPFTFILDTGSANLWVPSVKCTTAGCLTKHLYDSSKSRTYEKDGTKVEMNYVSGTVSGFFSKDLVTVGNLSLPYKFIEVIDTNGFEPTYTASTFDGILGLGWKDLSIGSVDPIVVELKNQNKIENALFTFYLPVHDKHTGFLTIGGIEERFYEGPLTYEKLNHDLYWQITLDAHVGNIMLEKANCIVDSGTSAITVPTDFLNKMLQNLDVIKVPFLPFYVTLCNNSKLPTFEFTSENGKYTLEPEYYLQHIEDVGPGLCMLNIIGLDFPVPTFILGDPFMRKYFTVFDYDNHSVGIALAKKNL

Plasmepsin II [3] = target: T2, Plasmepsin II; assay: Inhibition of Plasmodium falciparum plasmepsin 2 using Dabcyl-ERNIef:LSFP-EDANS as substrate incubated for 40 mins by FRET assay
Plasmepsin II [4] = target: T2, Plasmepsin II; assay: Inhibition of Plasmodium falciparum plasmepsin 2 incubated for 10 mins followed by DABCYL-Glu-Arg-Nle-Phe-Leu-Ser-Phe-Pro-EDANS addition and measured after 30 mins by fluorescence method
Plasmepsin II [5] = target: T2, Plasmepsin II; assay: Inhibition of Plasmodium falciparum plasmepsin 2 by FRET assay
Plasmepsin 4 [6] = target: T1, Plasmepsin 4; assay: Inhibition of Plasmodium falciparum plasmepsin 4 by FRET assay
Cathepsin D = Cathepsin D (Homo sapiens, UniProt P07339); assay: Inhibition of human liver cathepsin D using DABCYL-Glu-Arg-Nle-Phe-Leu-Ser-Phe-Pro-EDANS as substrate by FRET assay
Cathepsin D, sequence (P07339 65-162 limits assumed): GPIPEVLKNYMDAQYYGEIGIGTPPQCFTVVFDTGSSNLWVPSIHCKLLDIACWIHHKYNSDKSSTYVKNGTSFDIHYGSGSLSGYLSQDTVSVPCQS
Cathepsin D, sequence (P07339 169-412 limits assumed): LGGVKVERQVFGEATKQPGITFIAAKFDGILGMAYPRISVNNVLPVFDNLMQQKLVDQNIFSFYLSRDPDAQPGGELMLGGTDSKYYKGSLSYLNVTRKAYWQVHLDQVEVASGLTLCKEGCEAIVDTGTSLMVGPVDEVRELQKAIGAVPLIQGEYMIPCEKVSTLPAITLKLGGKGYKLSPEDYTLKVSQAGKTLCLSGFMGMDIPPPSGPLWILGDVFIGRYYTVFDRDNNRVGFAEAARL

Plasmepsin II [7] = target: T2, Plasmepsin II; assay: Inhibition of Plasmodium falciparum plasmepsin 2 using DABCYL-Glu-Arg-Nle-Phe-Leu-Ser-Phe-Pro-EDANS as substrate by FRET assay
Plasmepsin II [8] = target: T2, Plasmepsin II; assay: Inhibition of Plasmodium falciparum plasmepsin 2 preincubated for 30 mins followed by DABCYL-Glu-Arg-Nle-Phe-Leu-Ser-Phe-Pro-EDANS addition measured every minute for 8 to 15 mins by FRET assay

T1 sequence (Q17SB2 whole entry): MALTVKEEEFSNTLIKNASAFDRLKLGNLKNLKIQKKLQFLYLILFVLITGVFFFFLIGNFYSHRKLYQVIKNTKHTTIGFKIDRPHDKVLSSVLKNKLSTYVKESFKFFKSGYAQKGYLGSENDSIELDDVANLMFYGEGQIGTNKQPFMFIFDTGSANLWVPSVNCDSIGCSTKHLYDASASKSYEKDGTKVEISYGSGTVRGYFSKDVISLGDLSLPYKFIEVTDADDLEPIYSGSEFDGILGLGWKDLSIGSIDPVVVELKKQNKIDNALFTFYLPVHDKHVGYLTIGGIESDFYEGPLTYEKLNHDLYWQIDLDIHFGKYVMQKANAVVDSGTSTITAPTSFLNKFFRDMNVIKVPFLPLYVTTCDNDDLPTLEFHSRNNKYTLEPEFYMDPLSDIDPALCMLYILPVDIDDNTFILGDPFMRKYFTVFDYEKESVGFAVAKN

SMILES: CCCCCCCCCCc1ccc(S(=O)(=O)C2C3CCC(N3)C2NCc2ccc3ccccc3c2)cc1 (centres undefined)
IC50 (Plasmepsin 4 [1]): 3190 nM
IC50 (Plasmepsin II [2]): 350 nM

SMILES: CCCCCCc1ccc(S(=O)(=O)[C@@H]2[C@H](NCc3cccc(Br)c3)[C@@H]3CC[C@H]2N3)cc1
IC50 (Plasmepsin 4 [1]): 10 nM
IC50 (Plasmepsin II [2]): ≤ 45 nM

IC50 (Plasmepsin II [3]): 100 to 10000 nM
SMILES: Cc1ccc(C)c(OCCCc2ccc(C3=C(C(=O)N(Cc4ccccc4Cl)C4CC4)CNCC3)cc2)c1C

Ki (Plasmepsin II [4]): 50 to 680 nM
SMILES: O=C(Nc1ccc(Cl)c(Cl)c1)Nc1cc(Cl)c(Oc2ccc(Cl)cc2)cc1S(=O)(=O)O

SMILES: CC(=O)N1CC2CC(c3ccc(CCOc4ccc(C(C)(C)C)cc4C)cc3)=C(C(=O)N(C)CCc3ccccc3)C(C1)N2 (centres undefined)
IC50 (Plasmepsin II [3]): 10 to 100 nM

IC50 (Plasmepsin II [5]): 79000 nM
SMILES: c1ccc(-c2nnc(SCCOc3cc4c(cc3OCCc3cccc5ccccc35)C3CCC4N3)o2)cc1 (centres undefined)

SMILES: Clc1ccc2sc(SCCCc3cc4c(cc3OCCc3cccc5ccccc35)C3CCC4N3)nc2c1 (centres undefined)
IC50 (Plasmepsin 4 [6]): 10000 nM
IC50 (Plasmepsin II [5]): 2000 nM

Ki (Plasmepsin II [4]): 50 to 680 nM
SMILES: O=C(Nc1cc(C(F)(F)F)ccc1Cl)Nc1cc(Cl)ccc1Oc1cc(Cl)c(Cl)cc1S(=O)(=O)O

SMILES: CC(=O)N1CC2CC(c3ccc(CCOc4cc(F)ccc4Br)cc3)=C(C(=O)N(C)CCc3ccccc3)C(C1)N2 (centres undefined)
IC50 (Plasmepsin II [3]): < 10 nM

SMILES: CC(=O)N1CC2CC(c3ccc(CCOc4cccc(Br)c4)cc3)=C(C(=O)N(C)CCc3ccccc3)C(C1)N2 (centres undefined)
IC50 (Plasmepsin II [3]): 10 to 100 nM

Ki (Plasmepsin II [4]): 50 to 680 nM
SMILES: O=C(Nc1ccc(Oc2ccc(Cl)cc2)c(Cl)c1)Nc1cc(Cl)c(Cl)cc1S(=O)(=O)O

SMILES: CCCCOc1ccc(C(=O)N(Cc2ccc(-c3ccccc3)cc2)C2CCN(Cc3ccccc3)CC2)cc1
IC50 (Plasmepsin II [3]): 1700 nM

SMILES: c1ccc2c(CCOc3cc4c(cc3OCCSc3nc5ccccc5s3)C3CCC4N3)cccc2c1 (centres undefined)
IC50 (Plasmepsin 4 [6]): 15000 nM
IC50 (Plasmepsin II [5]): 3000 nM

SMILES: CC(C)(C)c1ccc(C(=O)N(Cc2ccc(-c3ccccc3)cc2)C2CCN(Cc3ccccc3)CC2)cc1
IC50 (Plasmepsin II [3]): > 20000 nM

SMILES: CCCCc1ccc(S(=O)(=O)C2C3CCC(N3)C2NCc2ccc3ccccc3c2)cc1 (centres undefined)
IC50 (Plasmepsin 4 [1]): 1480 nM
IC50 (Plasmepsin II [2]): 4190 nM

IC50 (Plasmepsin II [5]): 7000 nM
SMILES: CCCCCc1ccc(N(CC2CCC(O)C(F)(F)C2)C(=O)Cc2ccc3ccccc3c2)cc1 (centres undefined)

SMILES: CCc1ccc(C(=O)N(Cc2ccc(-c3ccccc3)cc2)C2CCN(Cc3ccccc3)CC2)cc1
IC50 (Plasmepsin II [3]): 15600 nM

SMILES: COc1cccc(OCCc2ccc(C3=C(C(=O)N(C)CCc4ccccc4)C4CN(C(C)=O)CC(C3)N4)cc2)c1 (centres undefined)
IC50 (Plasmepsin II [3]): 10 to 100 nM

SMILES: CCCCCCCCCCCc1ccc(S(=O)(=O)C2C3CCC(N3)C2NCc2ccc3ccccc3c2)cc1 (centres undefined)
IC50 (Plasmepsin 4 [1]): 5350 nM
IC50 (Plasmepsin II [2]): 1950 nM

Ki (Plasmepsin II [4]): 50 to 680 nM
SMILES: O=C(Nc1cc(C(F)(F)F)cc(C(F)(F)F)c1)Nc1c(Oc2ccc(Cl)cc2)ccc(Cl)c1S(=O)(=O)O

SMILES: O=S(=O)(c1ccc(CCCCC2CCC2)cc1)C1C2CCC(N2)C1NCc1ccc2ccccc2c1 (centres undefined)
IC50 (Plasmepsin 4 [1]): 180 nM
IC50 (Plasmepsin II [2]): 170 nM

SMILES: CCCCCc1ccc(S(=O)(=O)C2C3CCC(N3)C2NCc2ccc3ccccc3c2)cc1 (centres undefined)
IC50 (Plasmepsin 4 [1]): 240 nM
IC50 (Plasmepsin II [2]): 680 nM

SMILES: CCCCCCCCCc1ccc(S(=O)(=O)C2C3CCC(N3)C2NCc2ccc3ccccc3c2)cc1 (centres undefined)
IC50 (Plasmepsin 4 [1]): 1360 nM
IC50 (Plasmepsin II [2]): 150 nM

SMILES: c1cc(NNc2ccncc2)ccn1
IC50 (Cathepsin D): 1000 to 2500 nM
IC50 (Plasmepsin II [7]): 1000 to 2500 nM

IC50 (Plasmepsin II [3]): < 100 nM
SMILES: O=C(C1=C(c2ccc(CCCOc3cc(F)ccc3Br)cc2)CCNC1)N(Cc1ccccc1Cl)C1CC1

SMILES: CC(=O)N1CC2CC(c3ccc(CCOc4ccccc4Cl)cc3)=C(C(=O)N(C)CCc3ccccc3)C(C1)N2 (centres undefined)
IC50 (Plasmepsin II [3]): 100 to 10000 nM

Ki (Plasmepsin II [4]): 50 to 680 nM
SMILES: O=C(Nc1ccc(Cl)c(C(F)(F)F)c1)Nc1cc(Cl)ccc1Oc1ccc(Cl)cc1S(=O)(=O)O

SMILES: CCCCCCCCCCCC(=O)N(Cc1ccc(-c2ccccc2)cc1)C1CCN(Cc2ccccc2)CC1
IC50 (Plasmepsin II [3]): 1800 nM

SMILES: CC(=O)N1CC2CC(c3ccc(CCOc4cc(Cl)ccc4Cl)cc3)=C(C(=O)N(C)CCc3ccccc3)C(C1)N2 (centres undefined)
IC50 (Plasmepsin II [3]): 10 to 100 nM

SMILES: CC(=O)N1CC2CC(c3ccc(CCOc4cc(Cl)cc(Cl)c4)cc3)=C(C(=O)N(C)CCc3ccccc3)C(C1)N2 (centres undefined)
IC50 (Plasmepsin II [3]): 10 to 100 nM

Ki (Plasmepsin II [4]): 50 to 680 nM
SMILES: O=C(Nc1cccc(C(F)(F)F)c1)Nc1ccc(Oc2ccc(Cl)cc2Cl)cc1S(=O)(=O)O

IC50 (Plasmepsin II [3]): < 100 nM
SMILES: O=C(C1=C(c2ccc(CCCOc3ccccc3Cl)cc2)CCNC1)N(Cc1ccccc1Cl)C1CC1

SMILES: CCCC(=O)NN
IC50 (Cathepsin D): 1000 to 2500 nM
IC50 (Plasmepsin II [7]): 1000 to 2500 nM

SMILES: O=S(=O)(c1ccc(CCCCC2CCCCC2)cc1)C1C2CCC(N2)C1NCc1ccc2ccccc2c1 (centres undefined)
IC50 (Plasmepsin 4 [1]): 760 nM
IC50 (Plasmepsin II [2]): 380 nM

Ki (Plasmepsin II [4]): 50 to 680 nM
SMILES: O=C(Nc1ccc(Oc2ccc(Cl)cc2)c(Cl)c1)Nc1cc(C(F)(F)F)c(Cl)cc1S(=O)(=O)O

IC50 (Plasmepsin II [2]): 19000 nM
SMILES: CC(C)CCCN(CCCC(C)C)CC(O)c1cc2c(c3ccccc13)CCCC2 (centres undefined)

SMILES: CC(=O)N1CC2CC(c3ccc(CCOc4ccc(C)cc4C(C)(C)C)cc3)=C(C(=O)N(C)CCc3ccccc3)C(C1)N2 (centres undefined)
IC50 (Plasmepsin II [3]): 100 to 10000 nM

SMILES: CC(=O)N1CC2CC(c3ccc(CCOc4cccc(OC(F)(F)F)c4)cc3)=C(C(=O)N(C)CCc3ccccc3)C(C1)N2 (centres undefined)
IC50 (Plasmepsin II [3]): 10 to 100 nM

SMILES: CC(=O)N1CC2CC(c3ccc(CCOc4ccccc4C(C)(C)C)cc3)=C(C(=O)N(C)CCc3ccccc3)C(C1)N2 (centres undefined)
IC50 (Plasmepsin II [3]): 10 to 100 nM

SMILES: c1ccc(NNc2ccccc2)cc1 [HYDRAZOBENZENE]
IC50 (Cathepsin D): 1000 to 2500 nM
IC50 (Plasmepsin II [7]): 1000 to 2500 nM

SMILES: CCCCCCCc1ccc(S(=O)(=O)C2C3CCC(N3)C2NCc2ccc3ccccc3c2)cc1 (centres undefined)
IC50 (Plasmepsin 4 [1]): 210 nM
IC50 (Plasmepsin II [2]): 50 nM

SMILES: CCCCCc1ccc(C(=O)N(Cc2ccc(-c3ccccc3)cc2)C2CCN(Cc3ccccc3)CC2)cc1
IC50 (Plasmepsin II [3]): 70 to 90 nM

IC50 (Plasmepsin II [3]): 100 to 10000 nM
SMILES: CC(=O)N1CC2CC(c3ccc(CCOc4cccc(Cl)c4)cc3)=C(C(=O)N(C)CCc3ccccc3)C(C1)N2 (centres undefined)

IC50 (Plasmepsin II [8]): 600 nM
SMILES: CCCCCc1ccc(-n2nnc(CCN(CC)CC)c2-c2ccc(-c3ccc(OC)cc3)cc2)cc1

IC50 (Plasmepsin II [8]): > 200000 nM
SMILES: CCN(CC)CCc1nnn(-c2ccc(C)cc2)c1-c1ccc(-c2ccc(OC)cc2)cc1

IC50 (Plasmepsin II [3]): 100 to 10000 nM
SMILES: O=C(C1=C(c2ccc(CCCOc3c(F)ccc(F)c3F)cc2)CCNC1)N(Cc1ccccc1Cl)C1CC1

SMILES: c1ccc2c(CCOc3cc4c(cc3CCCSc3nc5ccccc5s3)C3CCC4N3)cccc2c1 (centres undefined)
IC50 (Plasmepsin 4 [6]): 33000 nM
IC50 (Plasmepsin II [5]): 4000 nM

Ki (Plasmepsin II [4]): 50 to 680 nM
SMILES: O=C(Nc1ccc(Cl)c(Cl)c1)Nc1cc(Cl)ccc1Oc1cc(Cl)c(Cl)cc1S(=O)(=O)O

SMILES: CCCCCCCCc1ccc(S(=O)(=O)C2C3CCC(N3)C2NCc2ccc3ccccc3c2)cc1 (centres undefined)
IC50 (Plasmepsin 4 [1]): 430 nM
IC50 (Plasmepsin II [2]): 70 nM

SMILES: CC(=O)N1CC2CC(c3ccc(CCOc4ccccc4C(C)C)cc3)=C(C(=O)N(C)CCc3ccccc3)C(C1)N2 (centres undefined)
IC50 (Plasmepsin II [3]): 10 to 100 nM

IC50 (Plasmepsin II [2]): 5000 nM
SMILES: CCCCCN(CCCCC)CC(O)c1cc2c(c3ccccc13)CCCC2 (centres undefined)

SMILES: CCCCCCc1ccc(S(=O)(=O)C2C3CCC(N3)C2NCc2ccc3ccccc3c2)cc1 (centres undefined)
IC50 (Plasmepsin 4 [1]): 50 nM
IC50 (Plasmepsin II [2]): 130 nM

SMILES: NNC(=O)C(c1ccccc1)c1ccccc1
IC50 (Cathepsin D): 1000 to 2500 nM
IC50 (Plasmepsin II [7]): 1000 to 2500 nM

SMILES: CC(C)CCCCc1ccc(S(=O)(=O)C2C3CCC(N3)C2NCc2ccc3ccccc3c2)cc1 (centres undefined)
IC50 (Plasmepsin 4 [1]): 90 nM
IC50 (Plasmepsin II [2]): 30 nM

SMILES: O=S(=O)(c1ccc(CCCCC2CCCC2)cc1)C1C2CCC(N2)C1NCc1ccc2ccccc2c1 (centres undefined)
IC50 (Plasmepsin 4 [1]): 210 nM
IC50 (Plasmepsin II [2]): 190 nM

Ki (Plasmepsin II [4]): 50 to 680 nM
SMILES: O=C(Nc1ccc(Cl)c(C(F)(F)F)c1)Nc1cc(Cl)c(Oc2ccc(Cl)cc2)cc1S(=O)(=O)O

IC50 (Plasmepsin II [8]): 600 nM
SMILES: CCCCCc1ccc(-n2nnc(CCN(CC)CC)c2-c2ccc(-c3ccc(OC)cc3)cc2)c(Cl)c1

SMILES: COc1ccccc1C(=O)NN
IC50 (Cathepsin D): 1000 to 2500 nM
IC50 (Plasmepsin II [7]): 1000 to 2500 nM

SMILES: NNC(=O)c1ccccc1[N+](=O)[O-]
IC50 (Cathepsin D): 1000 to 2500 nM
IC50 (Plasmepsin II [7]): 1000 to 2500 nM

IC50 (Plasmepsin II [8]): 5200 nM
SMILES: CCCCCc1ccc(Cn2nnc(CCN(CC)CC)c2-c2ccc(-c3ccc(OC)cc3)cc2)cc1

SMILES: COc1cc2c(cc1OCCc1cccc3ccccc13)C1CCC2N1 (centres undefined)
IC50 (Plasmepsin 4 [6]): 81000 nM
IC50 (Plasmepsin II [5]): 24000 nM
